ChEMBL document CHEMBL3797106, “Potent and Selective Agonists of Sphingosine 1-Phosphate 1 (S1P1): Discovery and SAR of a Novel Isoxazole Based Series” (J Med Chem, 2016)
Calls of active or inactive are those of the source. The rule behind the calls is not given here.

What was measured:
[1] = Plasma concentration in Lewis rat at 1 mg/kg, po measured at 24 hrs; assay type: ADME, organism-based
Rattus norvegicus [2] = test: Reduction of blood lymphocyte level in Lewis rat at 1 mg/kg, po measured at 4 hrs by hematology analyzer relative to vehicle-treated control; assay type: functional; set-up: scale not given: the % may be the effect or the level left
Rattus norvegicus [3] = test: Reduction of blood lymphocyte level in Lewis rat at 1 mg/kg, po measured at 24 hrs by hematology analyzer relative to vehicle-treated control; assay type: functional; set-up: scale not given: the % may be the effect or the level left
[4] = target: Sphingosine 1-phosphate receptor 1 (Homo sapiens, UniProt P21453); test: Agonist activity at human S1P1 receptor expressed in CHO cell membranes after 45 mins by [35S]-GTPgammaS binding assay; assay type: functional
Homo sapiens = organism: Homo sapiens; test: Selectivity ratio of EC50 for human S1P3 receptor to EC50 for human S1P1 receptor
Plasma = test: Ratio drug level in Lewis rat plasma at 1 mg/kg, po at 4 hrs to drug level in Lewis rat plasma at 1 mg/kg, po at 24 hrs; assay type: ADME, organism-based; settings: in vivo
[5] = target: Sphingosine 1-phosphate receptor 3 (Homo sapiens, UniProt Q99500); test: Agonist activity at human S1P3 receptor expressed in EDG3-Ga15-bla HEK293T cell membranes after 45 mins by [35S]-GTPgammaS binding assay; assay type: functional, HEK-293T
[6] = Plasma concentration in Lewis rat at 1 mg/kg, po measured at 4 hrs; assay type: ADME, organism-based
Mus musculus = test: Reduction in clinical score in C57BL/6 mouse experimental autoimmune encephalomyelitis model of multiple sclerosis at 1 mg/kg, po qd for 24 days started from day of immunization measured 3 times per week of compound dosing; assay type: functional, organism-based

Sphingosine 1-phosphate receptor 1, sequence (P21453 whole entry): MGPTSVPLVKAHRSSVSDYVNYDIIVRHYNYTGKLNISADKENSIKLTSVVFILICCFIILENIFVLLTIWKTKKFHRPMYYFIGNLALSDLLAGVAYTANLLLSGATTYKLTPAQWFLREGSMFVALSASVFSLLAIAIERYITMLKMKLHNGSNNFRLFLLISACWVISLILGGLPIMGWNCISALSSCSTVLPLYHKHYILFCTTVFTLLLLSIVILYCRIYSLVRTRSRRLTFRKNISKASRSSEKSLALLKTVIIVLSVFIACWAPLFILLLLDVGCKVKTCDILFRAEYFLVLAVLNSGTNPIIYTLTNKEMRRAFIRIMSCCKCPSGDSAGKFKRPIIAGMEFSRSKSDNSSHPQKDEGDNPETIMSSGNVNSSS
Sphingosine 1-phosphate receptor 3, sequence (Q99500 whole entry): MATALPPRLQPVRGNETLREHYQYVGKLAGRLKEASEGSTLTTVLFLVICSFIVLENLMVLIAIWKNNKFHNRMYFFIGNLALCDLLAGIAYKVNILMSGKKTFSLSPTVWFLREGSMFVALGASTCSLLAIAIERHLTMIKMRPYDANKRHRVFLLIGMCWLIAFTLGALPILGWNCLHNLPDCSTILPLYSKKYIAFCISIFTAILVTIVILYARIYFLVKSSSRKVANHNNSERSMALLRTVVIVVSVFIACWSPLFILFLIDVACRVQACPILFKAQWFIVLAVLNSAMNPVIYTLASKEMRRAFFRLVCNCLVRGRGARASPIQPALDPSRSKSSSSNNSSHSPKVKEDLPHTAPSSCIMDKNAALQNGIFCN

concentration at 24 h [1] [µM]	EC50 [4] [µM]	Ratio EC50 (Homo sapiens)	Ratio (Plasma)	EC50 [5] [µM]	concentration at 4 h [6] [µM]	SMILES	Activity (Rattus norvegicus [2]) [%]	Activity (Rattus norvegicus [3]) [%]	Activity (Mus musculus)
0.1	0.00054	3500	14	1.9	1.4	CC(F)(F)c1c(-c2nc(-c3ccc(CN4CC(C(=O)O)C4)cc3)no2)noc1-c1ccccc1	81	82	
0.041	0.0003	2900	33	0.85	1.3	CCCc1c(-c2nc(-c3ccc(CN4CC(C(=O)O)C4)cc3)no2)noc1CC(C)C	86	78	
0.029	0.0016	7500	11	12	0.32	CCc1c(-c2nc(-c3ccc(CN4CC(C(=O)O)C4)cc3)no2)noc1-c1ccccc1	76	52	
0.03	0.00056	1300	6	0.73	0.19	CC(C)Cc1c(-c2nc(-c3ccc(CN4CC(C(=O)O)C4)cc3)no2)noc1-c1ccccc1	80	82	
	0.025					O=C(O)C1CN(Cc2ccc(-c3noc(-c4cc(-c5ccccc5)no4)n3)cc2)C1			
	0.0017	5500		9.2		Cc1c(-c2ccccc2)noc1-c1nc(-c2ccc(CN3CC(C(=O)O)C3)cc2)no1			
	0.0013	4000		5.1		CC(C)c1c(-c2nc(-c3ccc(CN4CC(C(=O)O)C4)cc3)no2)noc1-c1ccccc1			
						CCCCCCCCc1ccc(CCC(N)(CO)CO)cc1			Active
0.011	0.00044	2300	15	1	0.17	CCCc1c(-c2ccccc2)noc1-c1nc(-c2ccc(CN3CC(C(=O)O)C3)cc2)no1	85	82	
	0.044	150		6.3	0.14	O=C(O)C1CN(Cc2ccc(-c3noc(-c4cc(-c5ccccc5)on4)n3)cc2)C1	22	0	
0.18	0.00098	4100	6	4.1	1.1	O=C(O)C1CN(Cc2ccc(-c3noc(-c4noc(-c5ccccc5)c4C(F)(F)F)n3)cc2)C1	84	85	
	0.0032	540		1.8		O=C(O)C1CN(Cc2ccc(-c3noc(-c4noc(-c5ccccc5)c4C4CC4)n3)cc2)C1			
	0.00099	130		0.13		O=C(O)C1CN(Cc2ccc(-c3noc(-c4noc(-c5ccccc5)c4-c4ccccc4)n3)cc2)C1			
0.055	0.0053	500	9	2.6	0.52	CC(C)(C)c1c(-c2nc(-c3ccc(CN4CC(C(=O)O)C4)cc3)no2)noc1-c1ccccc1	73	52	
0.0079	0.00044	2900	31	1.3	0.25	CCCc1c(-c2nc(-c3ccc(CN4CC(C(=O)O)C4)cc3)no2)noc1-c1ccccc1	85	60	
0.0064	0.005	> 6300	41	> 0.031	0.26	Cc1c(-c2nc(-c3ccc(CN4CC(C(=O)O)C4)cc3)no2)noc1-c1ccccc1	68	0	
0.005			16		0.081	CCCCc1c(-c2nc(-c3ccc(CN4CC(C(=O)O)C4)cc3)no2)noc1-c1ccccc1	82	60	
0.28	0.00039	16000	6	6.2	1.6	CC(C)Cc1onc(-c2nc(-c3ccc(CN4CC(C(=O)O)C4)cc3)no2)c1C(F)(F)F	88	83	
